# Results: US12285407B2, “Bis-indolylmethane derivatives and uses thereof” (The University of The West Indies, priority 2018, dated 2025)
# Read-outs that look alike come from different tables or passages of the source.
# Key:
# MRSA = assay: Adjuvant broth microdilution (antibiotic MIC with SP-BIM at 50 μg/mL); type: cell-based, Staphylococcus aureus; settings: Staphylococcus aureus, antibiotic alone, Table 4, read-out: MIC of antibiotic, No compound
# Klebsiella pneumoniae = assay: as above; type: cell-based; settings: Klebsiella pneumoniae; antibiotic alone; Table 7; read-out: MIC of antibiotic, No compound
# [1] = test system: Streptococcus pyogenes ATCC 19615; assay: Broth microdilution MIC of SP-BIMs; type: cell-based
# [2] = test system: Bacillus cereus ATCC 14579; assay: Broth microdilution MIC of SP-BIMs; type: cell-based
# [3] = test system: Enterococcus faecium ATCC 19434; assay: Broth microdilution MIC of SP-BIMs; type: cell-based
# [4] = test system: Corynebacterium diphtheriae ATCC 27010; assay: Broth microdilution MIC of SP-BIMs; type: cell-based
# [5] = test system: Staphylococcus aureus ATCC 12600; assay: Broth microdilution MIC of SP-BIMs; type: cell-based
# [6] = test system: Klebsiella pneumoniae ATCC 49472; assay: Broth microdilution MIC of SP-BIMs; type: cell-based
# [7] = test system: Escherichia coli ATCC 35218; assay: Broth microdilution MIC of SP-BIMs; type: cell-based
# [8] = test system: Salmonella typhimurium ATCC 14028; assay: Broth microdilution MIC of SP-BIMs; type: cell-based; settings: Salmonella enterica, read-out: MIC Salmonella tvpkimurium ATCC 14028
# Description: Reference microorganisms used in this study included: Bacillus cereus (American Type Culture Collection (ATCC) No. 14579), Streptococcus pyogenes (ATCC No. 19615), Staphylococcus aureus (ATCC No. 12600), Enterococcus faecium (ATCC No. 19434), Corynebacterium diphtheriae (ATCC No. 27010), Escherichia coli (ATCC No. 35218), Salmonella typhimurium (ATCC No. 14028), Pseudomonas aeruginosa (ATCC No. 27853), Klebsiella pneumoniae (ATCC No. 49472), and Candida albicans (ATCC No. 22972).
# Prior to each experiment, cultures were streaked onto clean BHI agar plates and incubated at 35° C. for 24 hours. Colonies of the respective cultures were selected and inoculated in phosphate buffer saline (pH 7.5) to a 0.5 McFarland turbidity standard (equivalent to 10^8 CFU mL^−1). The bacterial suspension was then diluted 1:100 in cation adjusted Mueller Hinton Broth (ca-MHB) (Oxoid Ltd, Basingstoke, Hampshire, England).
# Stock solutions (50 mg mL^−1) of the SP-BIM test compounds were prepared in DMSO and stored at 4° C. Working preparations of each compound was made up to 1 mg/mL in sterile deionized water with a final DMSO concentration of 10%.
# To assess the antibiotic properties of the library of SP-BIMs, the broth microdilution assay was performed in 96-well microplates according to the Clinical and Laboratory Standards Institute 2014 Guidelines (CLSI 2014). The broth microdilution assay was used to determine the minimum inhibitory concentration (MIC). […] Bacterial cells (˜10^6 CFU mL^−1) were inoculated into cation adjusted-Mueller Hinton broth containing the test compound in a twofold serial dilution ranging between 250 μg mL^−1 and 0.02 μg mL^−1. Plates were incubated at 35° C. for 18 hours after which 50 μL of 5% resazurin solution was added to each well. Resazurin is a blue dye which, upon reduction by living cells, turns to a pink resorufin product. Plates were shaken for 1 hour after the addition of the dye. The MIC was recorded as the well with the lowest concentration of test compound where no color change was observed.
# [9] = test system: Pseudomonas aeruginosa ATCC 27853; assay: Broth microdilution MIC of SP-BIMs; type: cell-based
# [10] = test system: Candida albicans ATCC 22972; assay: Broth microdilution MIC of SP-BIMs; type: cell-based
# Streptococcus pneumoniae = assay: Adjuvant broth microdilution (antibiotic MIC with SP-BIM at 50 μg/mL); type: cell-based; settings: Streptococcus pneumoniae, Streptococcus pneumonia, SP-BIM at 50 μg mL^−1
# [11] = ATCC19615, SP-BIM alone, read-out: MIC Streptococcus pyogenes ATCC 19615
# [12] = ATCC14579, SP-BIM alone, read-out: MIC Bacillus cereus ATCC 14579
# [13] = ATCC19434, SP-BIM alone, read-out: MIC Enterococcus faecium ATCC 19434
# [14] = ATCC27010, SP-BIM alone, read-out: MIC Corynebacterium diphtheriae ATCC 27010
# [15] = ATCC12600, SP-BIM alone, read-out: MIC Staphylococcus aureus ATCC 12600
# [16] = ATCC49472, SP-BIM alone, read-out: MIC Klebisella pneumoniae ATCC 49472
# [17] = ATCC35218, SP-BIM alone, read-out: MIC Escherichia coli ATCC 35218
# [18] = ATCC27853, SP-BIM alone, read-out: MIC Pseudomonas aeruginosa ATCC 27853
# [19] = ATCC22972, SP-BIM alone, read-out: MIC Candida albicans ATCC 22972
# [20] = read-out: MIC of Kanamvcin with SP-BIM
# [21] = read-out: MIC of Vancomvcin with SP-BIM
Structure (SMILES),"MIC [1, 11] [µg/mL]","MIC [2, 12] [µg/mL]","MIC [3, 13] [µg/mL]","MIC [4, 14] [µg/mL]","MIC [5, 15] [µg/mL]","MIC [6, 16] [µg/mL]","MIC [7, 17] [µg/mL]",MIC [8] [µg/mL],"MIC [9, 18] [µg/mL]","MIC [10, 19] [µg/mL]",MIC (Streptococcus pneumoniae; [20]) [µg/mL],MIC (Streptococcus pneumoniae; [21]) [µg/mL],further results
"C[C@@H](O)[C@H]1C(=O)N2C(C(=O)O)=C(SCCN=CN)C[C@H]12 [Imipenem, imipenem]",–,–,–,–,–,–,–,–,–,–,–,–,MIC (MRSA): 4 µg/mL; MIC (Klebsiella pneumoniae): 2 µg/mL
O=[N+]([O-])c1ccc(C(c2c[nH]c3ccccc23)c2c[nH]c3ccccc23)cc1 [SP-BIM 8],> 250,> 250,> 250,> 250,> 250,> 250,> 250,250,250,250,125,1,–
"COc1ccccc1C(c1c[nH]c2ccccc12)c1c[nH]c2ccccc12 [SP-BIM 12, bis(indol-3-yl)-2-methoxyphenylmethane]",> 250,> 250,> 250,> 250,> 250,> 250,> 250,250,250,250,125,1,–
"c1ccc2c(c1)cc(C(c1c[nH]c3ccccc13)c1c[nH]c3ccccc13)c1ccccc12 [SP-BIM 14, bis[indol-3-yl)-phenanthren-9-ylmethane]",–,–,–,–,–,–,–,250,–,–,125,1,"MIC ([1]; ATCC19615, read-out: MIC Streptococcus pyogenes ATCC 19615): 125 µg/mL; MIC ([2]; ATCC14579, read-out: MIC Bacillus cereus ATCC 14579): 125 µg/mL; MIC ([3]; ATCC19434, read-out: MIC Enterococcus faecium ATCC 19434): 125 µg/mL; MIC ([4]; ATCC27010, read-out: MIC Corynebacterium diphtheriae ATCC 27010): > 250 µg/mL; MIC ([5]; ATCC12600, read-out: MIC Staphylococcus aureus ATCC 12600): > 250 µg/mL; MIC ([6]; ATCC49472, read-out: MIC Klebisella pneumoniae ATCC 49472): > 250 µg/mL; MIC ([7]; ATCC35218, read-out: MIC Escherichia coli ATCC 35218): > 250 µg/mL; MIC ([9]; ATCC27853, read-out: MIC Pseudomonas aeruginosa ATCC 27853): 250 µg/mL; MIC ([10]; ATCC22972, read-out: MIC Candida albicans ATCC 22972): 250 µg/mL"
"Oc1cc(Br)ccc1[C+](c1c[nH]c2ccccc12)c1c[nH]c2ccccc12 [SP-BIM 17, 4-bromo-2-hydroxyphenylbis(indol-3-yl)methylium]",> 250,> 250,> 250,> 250,> 250,> 250,> 250,250,250,250,125,1,–
"COc1ccc2c(C(c3cccc(O)c3)c3c[nH]c4cc(OC)ccc34)c[nH]c2c1 [SP-BIM 19, bis(6-methoxyindoly-3-yl)-3-hydroxyphenylmethane]",> 250,> 250,> 250,> 250,> 250,> 250,> 250,250,250,250,125,1,–
"COc1ccc2c(C(c3ccc([N+](=O)[O-])cc3)c3c[nH]c4cc(OC)ccc34)c[nH]c2c1 [SP-BIM 20, bis(6-methoxyindol-3-yl)-4-nitrophenylmethane]",> 250,> 25,> 250,> 250,> 250,> 250,> 250,250,250,250,125,1,–
